Reference: patent US7416736B2, “Antimicrobial compositions” (Janssen Pharmaceutica N.V., priority 2001, dated 2008)

What was measured:
Assay type in all cases: cell-based
[1] = system: Escherichia coli IFO 3972; assay: MIC against bacteria in nutrient broth (Working Example 1); conditions: weight ratio 0:1 (second component alone), 24 hours at 30° C.
Procedure: (§1) By the following working examples, we describe in greater detail the antimicrobial effectiveness of the antimicrobial compositions of this invention. The term “MIC” as used in these working examples refers to the minimum inhibitory concentration (ppm) of the active ingredient in the antimicrobial compositions. […] The bacterial suspensions for inoculation used in working example 1 were prepared as follows. […] Next, test culture media were prepared by adding each of the varying diluted aqueous solutions (0.2 ml) of the antimicrobial compositions to a nutrient broth culture medium (10 ml). Each of these test culture media was inoculated with the above bacterial suspensions for inoculation (0.1 ml), and after culturing for 24 hours at 30° C. Then, the presence or absence of bacteria growth was assessed by visually observing the turbidity of the culture medium.

[2] = system: Staphylococcus aureus IFO 12732; assay: as above; conditions: weight ratio 0:1 (second component alone), 24 hours at 30° C.
Procedure: as §1

[3] = system: Aspergillus niger IFO 6341; assay: MIC against fungi on potato dextrose agar (Working Example 2); conditions: weight ratio 0:1 (second component alone), 7 days at 28° C.; for MIC: Aspergillus niger, IFO6341, 168 h, read-out: Minimum inhibitory concentration (ppm) against Aspergillus niger
Procedure: (§2) By the following working examples, we describe in greater detail the antimicrobial effectiveness of the antimicrobial compositions of this invention. The term “MIC” as used in these working examples refers to the minimum inhibitory concentration (ppm) of the active ingredient in the antimicrobial compositions. […] The spore suspensions for inoculation used in working example 2 were prepared as follows. Two fungi, Aspergillus niger IFO 6341 and Penicillium funiculosum IFO 6345, were cultured on two potato dextrose agar culture media not containing any biocides, and spores were formed. Next, said fungus spores were dispersed in disinfectant water to which 0.005% lubricant had been added, and two spore suspensions for inoculation were thus prepared. […] Next, test culture media were prepared by adding each of the varying diluted aqueous solutions (0.3 ml) of these antimicrobial compositions to a potato dextrose agar culture medium (15 ml). Each of these test culture media was inoculated with the above spore suspensions for inoculation (1 ml), and after culturing for 7 days at 28° C. Then, the presence or absence of fungus growth on each culture medium was observed visually.

[4] = system: Penicillium funiculosum IFO 6345; assay: as above; conditions: weight ratio 0:1 (second component alone), 7 days at 28° C.; for MIC: Talaromyces funiculosus, IFO6345, 168 h, read-out: Minimum inhibitory concentration (ppm) against Penicillium funiculosum
Procedure: as §2

[5] = system: Chlorella pyrenoidosa NIES 226; assay: MIC against algae on Bold's Basal agar (Working Example 3); conditions: weight ratio 0:1 (second component alone); 14 days at 25° C. and 1500 lux
Procedure: By the following working examples, we describe in greater detail the antimicrobial effectiveness of the antimicrobial compositions of this invention. The term “MIC” as used in these working examples refers to the minimum inhibitory concentration (ppm) of the active ingredient in the antimicrobial compositions. […] The algae suspensions for inoculation used in working example 3 were prepared as follows. Bold's Basal liquid culture medium (50 ml) was inoculated with Chlorella pyrenoidosa NIES 226, it was shake-cultured for 14 days at 25° C., and algae suspensions for inoculation was thus prepared. […] Next, test culture media were prepared by adding each of the varying diluted aqueous solutions (0.1 ml) of these antimicrobial compositions to Bold's Basal agar culture medium (15 ml). Each of these test culture media was inoculated with the above algae suspensions for inoculation (1 ml), and after culturing for 14 days at 25° C. and 1500 lux. Then, the presence or absence of algae growth on each culture medium was observed visually. […] Table 5 lists the MIC, for algae, of the antimicrobial composition of each weight ratio.

Row | Compound | Minimum inhibitory concentration (ppm) against Escherichia coli [1] | Minimum inhibitory concentration (ppm) against Staphylococcus aureus [2] | Minimum inhibitory concentration (ppm) against Aspergillus niger [3] | Minimum inhibitory concentration (ppm) against Penicillium funiculosum [4] | Minimum inhibitory concentration (ppm) against Chlorella pyrenoidosa [5] | MIC [3] | MIC [4] | MIC ([1]; Escherichia coli, IFO3972, read-out: Minimum inhibitory concentration (ppm) against Escherichia coli) | MIC ([2]; Staphylococcus aureus, IFO12732, read-out: Minimum inhibitory concentration (ppm) against Staphylococcus aureus)
1 | [O-][n+]1ccccc1SSc1cccc[n+]1[O-] [f, 2,2-dithio-bis(pyridine-1-oxide)] | 10 ppm | 4 ppm | 10 ppm | 1 ppm | 10 ppm | – | – | – | –
2 | CCCCCCCCn1sccc1=O [i, 2-(n-octyl)-3(2H)-isothiazolone] | – | – | – | – | 20 ppm | 0.4 µg/mL | 0.2 µg/mL | – | –
3 | [Cu+2].[O-][n+]1ccccc1[S-].[O-][n+]1ccccc1[S-] [d, Copper 2-pyridine thiol-1-oxide] | 200 ppm | 10 ppm | 400 ppm | 1 ppm | 100 ppm | – | – | – | –
4 | Clc1ccc(OCOCC#CI)cc1 [b, 1-chloro-4-[[(3-iodo-2-propynyl)oxy]methoxy] benzene] | – | – | – | – | 10 ppm | 1 µg/mL | 4 µg/mL | 1000 µg/mL | 20 µg/mL
5 | [O-][n+]1ccccc1[S-].[O-][n+]1ccccc1[S-].[Zn+2] [c, Zinc 2-pyridine thiol-1-oxide] | 40 ppm | 40 ppm | 10 ppm | 1 ppm | 20 ppm | – | – | – | –
6 | [Na+].[O-][n+]1ccccc1[S-] [e, 2-pyridine thiol-1-oxide sodium salt] | 200 ppm | 10 ppm | 400 ppm | 2 ppm | 40 ppm | – | – | – | –
7 | CSc1nc(NC2CC2)nc(NC(C)(C)C)n1 [g, 2-methylthio-4-t-butyl amino-6-cyclopropyl amino-s-triazine] | – | – | – | – | 0.1 ppm | – | – | – | –
8 | CCCCNC(=O)OCC#CI [h, 3-iodo-2-propynyl butylcarbamate] | – | – | – | – | 40 ppm | 1 µg/mL | 1 µg/mL | – | –
